Reference: patent US20130210821A1, “Methods for Treating Obesity” (priority 2010, published 2013)
pIC50: −log10 of the molar value. Like-named read-outs stand apart in the source and are kept apart here.

Experiments:
hMetAP2 = hMetAP2 (Homo sapiens, UniProt P50579); assay: MetAP2 enzyme assay; assay type: biochemical
hMetAP1 = hMetAP1 (Homo sapiens, UniProt P53582); assay: MetAP1 enzyme assay; assay type: biochemical
HUVEC = HUVEC inhibition (selectivity); assay type: cell-based, human
HFF = HFF inhibition (selectivity); assay type: cell-based, human
[1] = Co2+ as metal ion, Table 1, read-out: hMetAP2 CO^2+ IC50
[2] = Mn2+ as metal ion, Table 1, read-out: hMetAP2 Mn^2+ IC50
[3] = Co2+ as metal ion, Table 1, read-out: hMetAP1 CO^2+ IC50
[4] = Mn2+ as metal ion, Table 1, read-out: hMetAP1 Mn^2+ IC50
[5] = Co2+ as metal ion, Table 2, read-out: hMetAP2 Co^2+ IC50
[6] = Mn2+ as metal ion, Table 2, read-out: hMetAP2 Mn^2+ IC50
[7] = Co2+ as metal ion, Table 2, read-out: hMetAP1 Co^2+ IC50
[8] = Mn2+ as metal ion, Table 2, read-out: hMetAP1 Mn^2+ IC50

hMetAP2, sequence (P50579 whole entry): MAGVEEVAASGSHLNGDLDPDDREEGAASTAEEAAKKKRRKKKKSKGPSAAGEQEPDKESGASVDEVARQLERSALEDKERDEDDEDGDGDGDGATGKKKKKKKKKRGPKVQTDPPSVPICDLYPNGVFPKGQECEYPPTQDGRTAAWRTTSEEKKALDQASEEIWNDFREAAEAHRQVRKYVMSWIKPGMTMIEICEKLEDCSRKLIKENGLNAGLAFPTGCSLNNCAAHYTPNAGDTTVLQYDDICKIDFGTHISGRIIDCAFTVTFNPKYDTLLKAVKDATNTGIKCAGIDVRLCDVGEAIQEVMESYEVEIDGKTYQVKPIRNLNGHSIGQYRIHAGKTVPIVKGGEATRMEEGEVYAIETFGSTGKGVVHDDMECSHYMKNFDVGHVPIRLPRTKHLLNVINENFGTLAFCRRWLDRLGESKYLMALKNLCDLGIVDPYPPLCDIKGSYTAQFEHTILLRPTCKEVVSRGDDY

Row | SMILES | pIC50 (hMetAP2; [2]) | pIC50 (hMetAP1; [3]) | pIC50 (hMetAP1; [4]) | pIC50 (hMetAP2; [5]) | pIC50 (hMetAP2; [6]) | pIC50 (hMetAP1; [7]) | pIC50 (hMetAP1; [8]) | pIC50 (HUVEC; Homo sapiens, Table 1) | pIC50 (HFF; Homo sapiens, Table 1) | pIC50 (HUVEC; Table 2) | pIC50 (HFF; Table 2) | further results
1 | Oc1c(CN2CCOCC2)ccc2cccnc12 [Entry 2c] | 4.82 | < 4.30 | < 4.30 | – | – | – | – | 4.48 | 5.01 | – | – | pIC50 (hMetAP2; [1]): < 4.30
2 | C=CCOc1ccc(Cl)c2cccnc12 [Entry 3a] | – | – | – | – | – | – | – | < 4.30 | < 4.30 | – | – | –
3 | OCCOc1ccc(Cl)c2cccnc12 [Entry 3b] | – | – | – | – | – | – | – | < 4.30 | < 4.30 | – | – | pIC50 (hMetAP2): < 4.30; pIC50 (hMetAP2; read-out: hMetAP2 CO^2+ IC50, Co2+ as metal ion, Table 1): < 4.30; pIC50 (hMetAP1): < 4.30; pIC50 (hMetAP1; read-out: hMetAP1 CO^2+ IC50, Co2+ as metal ion, Table 1): < 4.30
4 | OCCN(CCO)Cc1cc(Cl)c2cccnc2c1O [Entry 2a] | 4.55 | – | – | – | – | – | – | 4.97 | 6.10 | – | – | –
5 | CN1CCN(Cc2cc(Cl)c3cccnc3c2O)CC1 [Entry 2e] | – | – | – | – | – | – | – | – | – | – | – | pIC50 (HUVEC; Table 1): 5.02; pIC50 (HFF; Table 1): 4.82
6 | Oc1c(CN2CCCCC2)cc(Cl)c2cccnc12 [Entry 2b] | – | < 4.30 | < 4.30 | – | – | – | – | – | – | – | – | –
7 | Oc1c(C(c2ccccc2)N2CCOCC2)cc(Cl)c2cccnc12 (stereo not drawn) [Entry 2f] | 6.48 | 4.85 | < 4.30 | – | – | – | – | 5.07 | 4.72 | – | – | pIC50 (hMetAP2; [1]): 5.10

More lines, main results first:

Row | pIC50 (hMetAP2; [2]) | pIC50 (hMetAP1; [3]) | pIC50 (hMetAP1; [4]) | pIC50 (hMetAP2; [5]) | pIC50 (hMetAP2; [6]) | pIC50 (hMetAP1; [7]) | pIC50 (hMetAP1; [8]) | SMILES | pIC50 (HUVEC; Homo sapiens, Table 1) | pIC50 (HFF; Homo sapiens, Table 1) | pIC50 (HUVEC; Table 2) | pIC50 (HFF; Table 2) | further results
8 | – | – | – | < 4.30 | 6.05 | < 4.30 | < 4.30 | O=C(Nc1cc(Cl)ccc1Cl)Oc1c(Cl)cc(Cl)c2cccnc12 [Entry 4b] | – | – | 6.96 | 5.52 | –
9 | – | – | – | < 4.30 | 5.59 | < 4.30 | < 4.30 | O=C(Nc1cc(Cl)c(Cl)cc1Cl)Oc1c(Cl)cc(Cl)c2cccnc12 [Entry 4a] | – | – | 5.89 | 5.31 | –
10 | – | – | – | 5.66 | 7.15 | < 4.30 | 4.90 | O=C(Nc1cc(Cl)ccc1Cl)Oc1ccc(Cl)c2cccnc12 [Entry 4c] | – | – | 5.92 | 5.10 | –
